Patent publication US20250114464A1, “PRE-MRNA SLICE MODULATING PEPTIDE-CONJUGATED ANTISENSE THERAPEUTICS FOR THE TREATMENT OF DISEASES” (The Governors of the University of Alberta, priority 2022, published 2025)

How the values were obtained:
[1] = tested on: dystrophin; conditions: patients, after 180 weeks of treatment with 30 or 50 mg/kg/week; cited from earlier work
[2] = tested on: Taiwanese SMA mouse model (Smn^−/− SMN2^Tg/−); assay: Righting reflex test; type: in vivo; conditions: 40 mg/kg at PD0; mice that survived beyond PD12
Description: This spontaneous ability of the mice to right themselves up was tested from P2 until the weaning stage P20. The neonates were placed on their backs and the time taken to reposition and place all four paws on the ground was noted. The recording time was a maximum of 60 s. Each neonate underwent three trials, with a resting period of at least 10 minutes between trials. The data is expressed as the mean time to complete the righting reflex test ±SEM.

[3] = tested on: Taiwanese SMA mouse model (Smn^−/− SMN2^Tg/−); assay: H and E muscle pathology (myofiber size, centrally nucleated fibers) in SMA mice; type: in vivo; conditions: 40 mg/kg at PD0
Source text: Atrophic musculature is a classical characteristic feature of SMA with diminished skeletal muscle fiber size. To determine the treatment effects on muscle pathology, we assessed the physiology and architecture of the myofibers of two affected muscle groups− the quadriceps and intercostal muscles, as well as the sparingly affected diaphragm at PD7 and PD30 [79,80]. We quantified the cross-sectional area (CSA), the minimal feret's diameter and centrally nucleated fibers for at least 500 myofibers per muscle for each treatment using hematoxylin & eosin (H & E) staining at PD7 and PD30 (FIG. 12a, b, FIGS. 19 and 20).
7 μm cryosections of the quadricep muscle, diaphragm and intercostal muscle were stained with Meyer's H&E reagents (Electron Microscopy Reagents). For the centrally nucleated fibers and myofiber size, 500-800 were randomly selected per muscle per treatment. The cross-sectional area and minimal Feter's diameter were quantified using Image J. All H and E analyses were performed in a blinded fashion.

[4] = tested on: Taiwanese SMA mouse model (Smn^−/− SMN2^Tg/−); assay: Neuromuscular junction (NMJ) staining at PD30; type: in vivo, mice; conditions: 40 mg/kg at PD0
Description: NMJ staining was carried out as previously described. Briefly, the quadricep and the intercostal muscle were fixed in 4% paraformaldehyde (PFA) for 2 hours. The muscles were washed quicky with PBS and blocked with 5% goat serum and 2% Triton-X in PBS for 1 hour at RT. This was followed by an overnight incubation at 4 with the primary mouse monoclonal antibodies anti-neurofilament 2H3 (1:100) and anti-synaptophysin (1:500) (DSHB, Iowa). Subsequently, the muscles were incubated in the dark with Alexafluor 488-goat anti-mouse IgG1 (1:1000) (Life Technologies) and Alexafluor 594-bungarotoxin (1:5000) (ThermoFisher Scientific). At least 300 NMJs were z-stacked and visualized for the analysis of denervation and cross-sectional area using a confocal microscope (Zeiss LSM 710) and Zeiss Zen software. The synaptic area was quantified using image J. All analyses were performed in a blinded fashion.

[5] = tested on: Taiwanese SMA mouse model (Smn^−/− SMN2^Tg/−); assay: Whole-body plethysmographic recordings at PD7; type: in vivo, mice; conditions: 40 mg/kg at PD0
Description: Measurements were performed in whole body, cylindrical transparent plexiglass plethysmographs that had one inflow and two outflow ports for the continuous delivery of fresh room air and removal of expired carbon dioxide. The plethysmograph of volumes were 10 ml (inner diameter: 1.9 cm, length: 3.5 cm for P7 mice with body weight less than 2.5 g), 30 ml (inner diameter: 2.6 cm, length: 5.6 cm for P7 mice with body weight more than 2.5 g) and 80 ml (inner diameter: 3.8 cm, length: 7 cm for P30) for measures of respiratory parameters with a flow rate of 15, 45, 120 ml/min, respectively. The gas was mixed with gas mixer (GSM-3, CWE InC, USA), delivered from compressed pure oxygen and pure nitrogen cannisters, being monitored using 0-200 ml/min gas regulators (Porter Instrument Company, USA).
Hypoxic challenge (11% of oxygen for 5 min) was performed with continuous monitoring of plethysmographic recordings without physical handling of the animal by switching inflow gas from normoxia (21% of oxygen, balanced by nitrogen) to hypoxia (11% of oxygen, balanced by nitrogen). […] For P30, the plethysmograph was recorded at room temperature of around 22° C. Pressure changes were detected with a pressure transducer (model DP 103; Validyne, USA), signal conditioner (CD-15; Validyne), recorded with data acquisition software (Axoscope) via analog-digital board (Digidata 1322A). […]

[6] = tested on: Taiwanese SMA mouse model (Smn^−/− SMN2^Tg/−); assay: Survival of severe SMA mice after subcutaneous injection at PD0; type: in vivo
Description: To examine whether DG9 peptide can increase the efficacy of PMO, DGS peptide was conjugated to an 18-mer PMO with a sequence identical to nusinersen. The DG9-conjugated PMO and unconjugated-PMO and 2′-O-methoxyethyl-RNA (MOE) were injected into SMA model mice.
Mice were subcutanteously injected with the AOs or saline (NT) administered at postnatal day 0 (PD0) at two different doses-40 mg/kg or 80 mg/kg. The survival was recorded until a humane endpoint was reached. For the 40 mg/kg doses, the median survival was 12 d (unconjugated-PMO), 15.5 d (MOE), and increased to 58 d for DG9-PMO treatment (FIG. 9a). The median survival incremented to 57 d (unconjugated-PMO), 121 d (DG9-PMO) and 64 d (MOE) for the higher dose of 80 mg/kg (FIG. 9a).
All animal experiments were conducted in University of Alberta and approved by the Animal Care and Use Committee, University of Alberta Research Ethics Office. SMA transgenic mice (JAX stock #005058 FVB.Cg-Tg(SMN2)2HungSmn1^tm1Hung/J (Smn^−/−; SMN2^Tg/Tg), also known as the Taiwanese mice) were purchased from Jackson Laboratory (Bar Harbor, ME, USA). Heterozygous mice for Smn1 (Smn1^+/−; SMN2^−/−) were crossed with mice homozygous for Smn1 Smn^−/−; SMN2^Tg/Tg to obtain the SMA mice (Smn^−/−; SMN2^Tg/−) or the heterozygous healthy control (Smn1^+/−; SMN2^Tg/−). The SMA mice display a severe overt phenotype similar to SMA type I patients. […]

[7] = tested on: dystrophin; conditions: in vitro; cited from earlier work

eteplirsen
dystrophin of normal levels [1]: 0.93%

unconjugated-PMO: Example 2: 18-mer PMO targeting ISS-N1 intron 7 (5′-TCACTTTCATAATGCTGG-3′), sequence identical to nusinersen (all phosphorodiamidate morpholino (PMO); unconjugated)
time to right themselves on their paws [2]: still took longer than DG9-PMO mice | quadriceps myofiber size ([3]; PD7): significantly smaller than those of DG9-PMO | myofiber size and percent of central nuclei ([3]; PD30, all three tissue types): significantly smaller myofibers and a higher percent of central nuclei compared to DG9-PMO | NMJ architecture [4]: smaller endplates and collapsed vesicles | full innervation of NMJs ([4]; quadriceps and intercostal muscles): 40-50% | respiratory parameters (fR, VE, VT) ([5]; PD7, hypoxic environment (11% O2), relative to normoxia): slow, weak, and irregular breathing when compared to the Hets | respiratory phenotype ([5]; PD7, normoxic conditions (21% O2)): Half of the unconjugated-PMO mice (n=14) exhibited parameters as seen in NT mice | median survival ([6]; 40 mg/kg subcutaneous at PD0): 12 days | median survival ([6]; 80 mg/kg subcutaneous at PD0): 57 days

Ex51_Ac0: exon 51-skipping PMO, GTGTCACCAGAGTAACAGTCTGAGTAGGAG (all phosphorodiamidate morpholino (PMO); DG9 cell-penetrating peptide conjugated at 3' end in DG9-PMO)
effectiveness in restoring dystrophin production relative to eteplirsen [7]: up to 7 times
